Assay results taken from the METLIN SMRT retention time set (Domingo-Almenara et al. 2019).

Assay: gradient 5% acetonitrile 3 min, to 50% in 2 min, to 85% in 15 min, held 3 min, 100 µL/min
Conditions: column: Zorbax Extend-C18 2.1 x 50 mm; eluents: water / acetonitrile, 0.1% formic acid
How it was run: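 Using water and acetonitrile that each contained 0.1% formic acid, mixtures of ~100 pure standards were separated at 100 μL/min on a Zorbax Extend-C18 column (2.1 × 50 mm, 1.8 μm). The HPLC fed a quadrupole time-of-flight mass spectrometer working in positive and negative ionization mode, with dead and dwell volumes of 40 μL and 900 μL. Data were acquired over 3 months. Retention time was read from computationally picked adduct peaks after manual inspection of each.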

For `CCCN1C(=O)COc2ccc(-c3csc(NC(=O)C4CC4)n3)cc21`, the RP-LC retention time was 879 s.

Work on `O=C1Nc2ccccc2/C1=C\c1cnc[nH]1` yielded an RP-LC retention time of 617 s.

For `CCOC(=O)c1ccc(N2C(=O)Cn3cccc3C2C(=O)NC2CCCCC2C)cc1` (configuration not stated), the RP-LC retention time was 994 s.

For `COC(=O)c1ccccc1Nc1c(-c2ccc(SC)cc2)nc2cnccn12`, the RP-LC retention time was 1070 s.

In the case of `CCc1nnc([C@@H]2CC(F)(F)CN2C(=O)COc2ccc(F)cc2)o1`, the RP-LC retention time is reported as 800 s.

`CCc1nn2c(CNS(=O)(=O)c3cccc(F)c3)c(-c3ccccc3)nc2s1` gave an RP-LC retention time of 935 s.

With `O=S(=O)(c1ccc2c(c1)CCC2)N1CCCn2nc(-c3ccncc3)cc2C1` the RP-LC retention time was 687 s.

`COc1cc2c(cc1OC)C(C(=O)NC1CCCCCC1)C(c1cccnc1)N(C)C2=O` (configuration not stated) gave an RP-LC retention time of 645 s.

With `CCn1nc(C)c2c(-c3ccccc3)cc(OC(C)C(=O)Nc3ccc(C(C)=O)cc3)nc21` (configuration not stated) the RP-LC retention time was 1030 s.

With `COc1ccc(C(=O)N2CCN(S(=O)(=O)c3cc4c5c(c3)CCC(=O)N5CCC4)CC2)cc1` the RP-LC retention time was 779 s.

`O=C(CCNc1c(-c2cccc(F)c2)nc2cnccn12)NCc1ccc(F)cc1F` showed an RP-LC retention time of 776 s.

For `O=C(NCc1cccc(Br)c1)C1CCCN(c2cnc3nccnc3c2)C1` (configuration not stated), the RP-LC retention time was 739 s.

Work on `O=C(Nc1ccc(Cl)cc1)C1CCCN1S(=O)(=O)c1cccc2nsnc12` (configuration not stated) yielded an RP-LC retention time of 924 s.

Work on `Cc1cc(N2CCN(S(=O)(=O)c3ccc(F)c(F)c3)CC2)nc(N2CCOCC2)n1` yielded an RP-LC retention time of 664 s.

Compound `CCCn1cnc2cc(-c3noc(CNC(=O)Cc4ccccc4)n3)ccc21` has an RP-LC retention time of 659 s.

Compound `Cc1nn(CC(=O)N2CCCC(C)C2)c(=O)c2nc(-c3ccccc3)sc12` (configuration not stated) has an RP-LC retention time of 875 s.

With `CN1CCC(N2CCN(S(=O)(=O)c3cc(-c4nc(C(C)(C)C)cs4)cs3)CC2)CC1` the RP-LC retention time was 660 s.

For `O=C(c1ccc(-c2ccsc2)nc1)N1CCN(C2CCCCC2)CC1`, the RP-LC retention time was 625 s.

`COc1cc(NC(=O)Cn2nc3c4cc(C)ccc4ncn3c2=O)cc(OC)c1` showed an RP-LC retention time of 682 s.

In the case of `COc1ccc(OC)c(S(=O)(=O)N2CCCC(C(=O)NCc3ccccc3)C2)c1` (configuration not stated), the RP-LC retention time is reported as 841 s.

In the case of `Cc1cccc([N+](=O)[O-])c1NC(=O)C1CCCN(c2ccc(-n3cccn3)nn2)C1` (configuration not stated), the RP-LC retention time is reported as 711 s.

`Cc1ccc(S(=O)(=O)n2nc(-c3ccc(C)c(C)c3)nc2N)cc1` showed an RP-LC retention time of 1000 s.

For `CCOC(=O)c1cnc2nc(C)ccc2c1Nc1ccc(OC)c(OC)c1`, the RP-LC retention time was 587 s.

Compound `Cc1nc(C)c(C(=O)N2CCC(Oc3ccc(-c4noc(-c5ccccc5)n4)cc3)C2)s1` (configuration not stated) has an RP-LC retention time of 1080 s.

`Cc1nc(C)c(C(=O)Nc2nc(-c3ccc(OC(C)C)cc3)cs2)s1` showed an RP-LC retention time of 1020 s.

With `O=c1cc(-c2cc3c(ccc4ccccc43)oc2=O)c2ccc(O)cc2o1` the RP-LC retention time was 875 s.

For `COc1cccc(C2CC(c3ccc4c(c3)OCO4)=NC3(CCN(C(C)C)CC3)N2)c1O` (configuration not stated), the RP-LC retention time was 599 s.

In the case of `Cn1cccc1C(=O)N1CC[C@H](n2c(=O)n(C)c3cccnc32)C1`, the RP-LC retention time is reported as 695 s.

Work on `Cc1sc(NC(=O)c2cccc(Br)c2)nc1-c1ccc2c(c1)NC(=O)C(C)O2` (configuration not stated) yielded an RP-LC retention time of 1040 s.

Compound `Cc1cc(NC(=O)c2csc(-c3cn(C)c4ncccc34)n2)ccc1F` has an RP-LC retention time of 1050 s.

`Cc1cc(C)nc(NS(=O)(=O)c2ccc(Nc3nc(-c4ccc(C(C)C)cc4)cs3)cc2)n1` gave an RP-LC retention time of 1120 s.

With `Cc1ccc(Sc2cc3c(cc2NC(=O)c2ccco2)n(C)c(=O)n3C)cc1` the RP-LC retention time was 988 s.

With `N#Cc1cccc(C(=O)Nc2cnn(-c3ncc(N4CCCCC4)cn3)c2)c1` the RP-LC retention time was 847 s.

`COc1cc(OC)cc(-c2nnc(Cc3nc(-c4ccc(C)cc4)no3)o2)c1` gave an RP-LC retention time of 1080 s.

With `COCCN(Cc1ccc(Cl)cc1)Cc1cc(=O)c2cccc(F)c2[nH]1` the RP-LC retention time was 983 s.

Compound `Cc1cccc(-c2nc(C)c3c(n2)N(Cc2ccco2)C(=O)CC3)c1` has an RP-LC retention time of 1110 s.

With `Cc1ccc(-c2ccc(N3CCCC(C(=O)NCc4ccc(C(C)C)cc4)C3)nn2)cc1` (configuration not stated) the RP-LC retention time was 889 s.

Compound `Cc1ccc(NC(=O)C2CCN(c3cncnc3N3CCOCC3)CC2)cc1C` has an RP-LC retention time of 670 s.

With `Cc1cc(C)cc(C(=O)N2CCN(S(=O)(=O)c3cc4c5c(c3)CCC(=O)N5CCC4)CC2)c1` the RP-LC retention time was 815 s.

For `COc1cc(OC)cc(C(=O)N2CCN=C2N2CCC(C)CC2)c1`, the RP-LC retention time was 694 s.

For `COc1ccc(C(=O)N2CC(=O)Nc3ccc(F)cc3C2c2ccccc2)c(OC)c1` (configuration not stated), the RP-LC retention time was 854 s.

With `CCc1nn2c(CNS(=O)(=O)c3ccc(F)c(F)c3)c(-c3ccccc3)nc2s1` the RP-LC retention time was 982 s.

`Cc1ccc(NC(=O)C2CCCN(c3ncnc4c3nc3n4CCCCC3)C2)nc1` (configuration not stated) gave an RP-LC retention time of 699 s.

`O=C(NCc1ccccc1)c1nc(Cn2c(=O)oc3ccc(Cl)cc32)no1` gave an RP-LC retention time of 960 s.

In the case of `Cc1ccccc1CNC(=O)c1csc(-c2cn(C)c3ncccc23)n1`, the RP-LC retention time is reported as 1120 s.

`COc1ccc(-c2nc(CNC(=O)C3CCOC3)no2)cc1` (configuration not stated) showed an RP-LC retention time of 677 s.

For `CCOc1cccc(-c2noc(-c3nn(-c4ccccc4)ccc3=O)n2)c1`, the RP-LC retention time was 942 s.

For `CCCn1cc(CCNC(=O)c2cc(F)cc(F)c2)c2cccnc21`, the RP-LC retention time was 820 s.

In the case of `CCOc1cc(C(=O)Nc2c(-c3ccccc3)nc3cc(C)ccn23)cc(OCC)c1OCC`, the RP-LC retention time is reported as 775 s.

`CCc1cccc(NC(=O)Nc2cccc(-c3ccc(N4CCOCC4)nn3)c2)c1` showed an RP-LC retention time of 770 s.

`CO[C@H]1C(=O)N(C(C)C)[C@H]1C1CCN(C(=O)c2cnccn2)CC1` gave an RP-LC retention time of 621 s.

`O=C(NCc1ccc(F)c(Cl)c1)C1CCN(C(=O)c2ncn3c2COC(c2ccccc2)C3)CC1` (configuration not stated) showed an RP-LC retention time of 842 s.

Compound `Cc1noc(C)c1CNC(=O)NCCc1ccccc1` has an RP-LC retention time of 689 s.

In the case of `Cn1cc(S(=O)(=O)NCc2ccc(F)cc2Cl)c2cccnc21`, the RP-LC retention time is reported as 821 s.

`COc1cc(OC)c(NC(=O)C2CCN(C(=O)c3cc(-c4ccncc4)n[nH]3)CC2)cc1Cl` showed an RP-LC retention time of 611 s.

`CCS(=O)(=O)N1C[C@@H](COc2cccnc2)[C@H](c2ccccn2)C1` gave an RP-LC retention time of 561 s.

With `COc1ccc(OC)c(NC(=O)N2CCOc3ccc(Cl)cc32)c1` the RP-LC retention time was 1010 s.

`CCCN(CC1CC1)C(=O)c1nn(CCOC)c2c1CNCC2` gave an RP-LC retention time of 567 s.

Compound `Cc1ccccc1OCC(=O)Nc1nc(-c2ccccc2Cl)cs1` has an RP-LC retention time of 1210 s.

`Cc1oc2ncnc(N3CCCCC3)c2c1C(=O)NCCN(Cc1ccco1)C1CCCC1` showed an RP-LC retention time of 845 s.

Work on `Cc1ccc(NC(=O)Cn2c(=O)cc(-c3nc(C)no3)c3ccccc32)c(C)c1` yielded an RP-LC retention time of 972 s.

Compound `O=c1c2cnc3nc(-c4ccccc4Cl)nn3c2ccn1-c1ncn[nH]1` has an RP-LC retention time of 670 s.

In the case of `COCC(=O)Nc1ccc2c(c1)CN(C(=O)c1ccccc1)CC2`, the RP-LC retention time is reported as 658 s.

`O=C(Cn1ccc2ccccc21)NCc1ccc(OC(F)(F)F)cc1` gave an RP-LC retention time of 971 s.

`CN(CCc1noc(COc2ccccc2)n1)C(=O)Nc1ccc(F)c(Cl)c1` showed an RP-LC retention time of 966 s.

`CC(Cc1cccc(C(F)(F)F)c1)NCCCc1ccccc1` (configuration not stated) showed an RP-LC retention time of 868 s.

In the case of `CCOCCn1c(=O)c2c(nc3n2CCCCN3c2ccc(OCC)cc2)n(C)c1=O`, the RP-LC retention time is reported as 906 s.

`O=C(NC1CCCC1)C1CCCN(c2ccc3cc(S(=O)(=O)N4CCCCC4)ccc3n2)C1` (configuration not stated) gave an RP-LC retention time of 781 s.

For `COc1ccc(NC(=O)c2c(C)oc3nc(C)nc(N4CCOCC4)c23)cc1`, the RP-LC retention time was 706 s.

`COc1ccc(-c2cc3n(n2)C(NC2CC2)CNC3=O)cc1` (configuration not stated) showed an RP-LC retention time of 683 s.

`O=C(CSc1nnc(NC(=O)Cc2cccc3ccccc23)s1)NCC1CCCO1` (configuration not stated) gave an RP-LC retention time of 715 s.

Compound `COCCN(Cc1ccncc1)S(=O)(=O)c1ccc(-c2ccccc2)cc1` has an RP-LC retention time of 630 s.

`COCCOC(=O)C1=C(C)NC2=C(C(=O)CC(C)(C)C2)C1c1cccc(OC)c1OC` (configuration not stated) gave an RP-LC retention time of 787 s.

`CCS(=O)(=O)Nc1ccc2nc(N3CCN(c4ccc(F)cc4)CC3)cc(C(=O)O)c2c1` showed an RP-LC retention time of 653 s.

In the case of `Cc1cc(C)cc(NC(=O)N2CCC3(CC2)NC(=O)c2ccccc2O3)c1`, the RP-LC retention time is reported as 842 s.

Compound `CC(Cc1ccco1)NC(=O)c1cc(-c2ccccn2)nc2ccccc12` (configuration not stated) has an RP-LC retention time of 843 s.

With `CC1CCN(c2nc3c(c(=O)n(Cc4ccccc4F)c(=O)n3C)n2C)CC1` the RP-LC retention time was 1130 s.

`CCc1ccccc1NC(=O)C1CCCN(c2ncnc3c2nc2n3CCCCC2)C1` (configuration not stated) showed an RP-LC retention time of 802 s.

Work on `Cc1noc(C)c1S(=O)(=O)N1CC(CN(C)C)C2(CCOCC2)C1` (configuration not stated) yielded an RP-LC retention time of 600 s.

`CCn1cc(S(=O)(=O)N2CCC(c3noc(-c4ccccc4)n3)C2)cn1` (configuration not stated) gave an RP-LC retention time of 881 s.

With `CCCNc1cc(N2CCC(CCC(=O)NCc3cc(F)ccc3F)CC2)ncn1` the RP-LC retention time was 684 s.

With `Cc1ccc(CNC(=O)Nc2cc3c(cc2N2CCCCC2)n(C)c(=O)n3C)cc1` the RP-LC retention time was 610 s.

`CC1(C(=O)NCc2ccccc2)Cn2cnc(C(=O)N3CCOCC3)c2C(=O)N1C1CC1` (configuration not stated) gave an RP-LC retention time of 605 s.

`CCS(=O)(=O)c1ccc2c(c1)N(Cc1nc(-c3cccc(Br)c3)no1)C(=O)CO2` showed an RP-LC retention time of 988 s.

In the case of `O=C(CN1CCCc2nc(C3CC3)ncc2C1=O)NCc1ccco1`, the RP-LC retention time is reported as 663 s.

Work on `Cc1ccnc(N2CCC(C(=O)NCc3ccc4c(c3)OCO4)CC2)n1` yielded an RP-LC retention time of 658 s.

With `CC(C)C(=O)Nc1ccc(C(=O)NCCNS(=O)(=O)N(C)C)cc1` the RP-LC retention time was 631 s.
